The target of one experiment is T1, KRas^G12D (Homo sapiens, UniProt P01116, G12D).
T1 construct: […]; biotin (biotinylated); purchased Accelegan Inc
The experiment in a line: KRas binding assay (TR-FRET displacement of Cy5 labelled tracer). On the technique in general: Time-resolved FRET reads energy transfer from a long-lived donor to a nearby acceptor.

Another experiment concerns the target T2, KRas^G12R (Homo sapiens, UniProt P01116, G12R).
T2 construct: […]; biotin (biotinylated); purchased Accelegan Inc
The description is as above.

The next experiment addresses T3, KRas^G12V (Homo sapiens, UniProt P01116, G12V).
T3 construct: […]; biotin (biotinylated); purchased Accelegan Inc
Described as above.

The subject of experiment [1] is AsPC-1 (G12D) cells, phospho-ERK. In words: Inhibition of KRas-mediated phosphorylation of ERK (phospho-ERK/GAPDH antibody detection, LI-COR). The format is cell-based. To be noted: Homo sapiens, ASPC1, 3 hours. An outline of the steps: (§1)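 Cells seeded 20,000/well, attached 12-14 h, then compound (0.5% DMSO) for 3 h. Formaldehyde-fixed, methanol-permeabilized cells stained for phospho-ERK (Thr202/Tyr204) and GAPDH; infrared imaging. Ratio expressed as % of DMSO control; IC50 from 4-parameter fit.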

In experiment [2] the test system is NCI-H460 (Q61H) cells, phospho-ERK. The experiment is described as above. It counts as cell-based. Particulars: Homo sapiens, 3 hours. An outline of the steps:
as §1

Experiment [3] deals with NCI-H727 (G12V) cells, phospho-ERK. The description is as above. It counts as cell-based. To be noted: Homo sapiens, 3 hours. An outline of the steps:
as §1

Another experiment concerns ASPC1 cells, pERK. The experiment in a line: Inhibition of KRas phosphorylation of ERK (Cisbio HTRF Advanced pERK assay). The format is cell-based. To be noted: Homo sapiens, ASPC1, 3 h, AsPC-1 cells, read-out: Inhibition (HTRF IC50 nM) of KRas-mediated Phosphorylation of ERK, AsPC-1. An outline of the steps: (§2)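 Cells seeded at 6,000/well in RPMI with 10% FBS, grown overnight at 37 °C, then exposed 3 h to 10-dose 3-fold compound series from 10 uM (0.8% DMSO final); 0.2 uM trametinib as minimum control. Lysates read for pERK by HTRF after 2 h antibody incubation at room temperature.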

The subject of the next experiment is H358 cells, pERK. The experiment is described as above. It counts as cell-based. Particulars: Homo sapiens, NCI-H358, 3 hrs, read-out: Inhibition (HTRF IC50 nM) of KRas-mediated Phosphorylation of ERK, H358. An outline of the steps:
as §2

In the next experiment the test system is H460 cells, pERK. The experiment is described as above. It counts as cell-based. To be noted: Homo sapiens, NCI-H460, 3 hrs, read-out: Inhibition (HTRF IC50 nM) of KRas-mediated Phosphorylation of ERK, H460. An outline of the steps:
as §2

The next experiment concerns H727 cells, pERK. The experiment is described as above. The format is cell-based. Particulars: Homo sapiens, NCI-H727, 3 h, read-out: Inhibition (HTRF IC50 nM) of KRas-mediated Phosphorylation of ERK, H727. The method in brief:
as §2

For the next experiment, the system named is HCT116 cells, pERK. The experiment is described as above. Particulars: Homo sapiens, HCT-116, 3 hrs, read-out: Inhibition (HTRF IC50 nM) of KRas-mediated Phosphorylation of ERK, HCT116. It counts as cell-based. The method in brief:
as §2

The test system of a further experiment is MKN1 cells, pERK. Described as above. Particulars: Homo sapiens, MKN-1, 3 h, read-out: Inhibition (HTRF IC50 nM) of KRas-mediated Phosphorylation of ERK, MKN1. It counts as cell-based. The method in brief: as §2
Another experiment relates to PSN1 cells, pERK. Described as above. The format is cell-based. To be noted: Homo sapiens, PSN1, 3 h, read-out: Inhibition (HTRF IC50 nM) of KRas-mediated Phosphorylation of ERK, PSN1. The method in brief:
as §2

A value given as a limit tells only on which side of the number the result lay.

T3 sequence (P01116 1-169 isoform P01116-2 G12V): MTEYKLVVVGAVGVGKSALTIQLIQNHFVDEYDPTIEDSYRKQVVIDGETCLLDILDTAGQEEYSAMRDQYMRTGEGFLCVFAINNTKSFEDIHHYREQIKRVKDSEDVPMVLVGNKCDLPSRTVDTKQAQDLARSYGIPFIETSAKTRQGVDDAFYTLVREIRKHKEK
T1 sequence (P01116 1-169 isoform P01116-2 G12D): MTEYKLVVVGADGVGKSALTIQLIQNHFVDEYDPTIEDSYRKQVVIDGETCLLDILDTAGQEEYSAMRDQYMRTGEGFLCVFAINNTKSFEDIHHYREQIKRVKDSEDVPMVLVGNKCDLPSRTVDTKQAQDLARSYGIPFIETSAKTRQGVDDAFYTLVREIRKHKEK
T2 sequence (P01116 1-169 isoform P01116-2 G12R): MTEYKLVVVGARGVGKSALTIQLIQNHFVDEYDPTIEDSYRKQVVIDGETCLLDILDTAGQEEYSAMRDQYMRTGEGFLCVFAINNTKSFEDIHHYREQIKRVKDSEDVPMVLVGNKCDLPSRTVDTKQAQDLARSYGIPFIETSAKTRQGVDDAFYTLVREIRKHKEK
Description for KRas^G12D: (§3) The ability of a compound to bind to KRas was measured using a TR-FRET displacement assay. […] After a 60-minute incubation at room temperature, the reaction was measured using a BMG LABTECH CLARIO star Plus via TR-FRET. […] The POC values were fit to a 4-parameter IC50 equation and the IC50 value reported.
Description for KRas^G12R: as §3
Description for KRas^G12V: as §3

Consider `CCc1c(F)ccc2cc(O)cc(N3CCc4c(nc(OC[C@@]56CCCN5C[C@H](F)C6)nc4N4CCCC(O)CC4)C3)c12` (stereo partly drawn) [Example 30, 1-(7-(8-ethyl-7-fluoro-3-hydroxynaphthalen-1-yl)-2-(((2R,7aS)-2-fluorohexahydro-1H-pyrrolizin-7a-yl)methoxy)-5,6,7,8-tetrahydropyrido[3,4-d]pyrimidin-4-yl)azepan-4-ol], for which the IC50 was no more than 2 nM on KRas^G12D; no more than 2 nM on KRas^G12R; no more than 2 nM at KRas^G12V; 447 nM in [1]; 309 nM in [2]; 399 nM in experiment [3]. Moreover, the half-maximal inhibitory concentration (IC50) with ASPC1 cells, pERK amounted to 86 nM; with H358 cells, pERK it was 83 nM; in the experiment with H460 cells, pERK it was 203 nM; in the experiment on H727 cells, pERK, 227 nM; with HCT116 cells, pERK it was 480 nM; in the experiment with MKN1 cells, pERK, 16 nM. The IC50 with PSN1 cells, pERK amounted to 3510 nM.

As for `CCc1c(F)ccc2cc(O)cc(N3CCc4c(nc(OC[C@@]56CCCN5C[C@H](F)C6)nc4N4CCCn5nc(C(=O)NC(C)C)cc5C4)C3)c12` [Example 188, 5-(7-(8-ethyl-7-fluoro-3-hydroxynaphthalen-1-yl)-2-(((2R,7aS)-2-fluorotetrahydro-1H-pyrrolizin-7a(5H)-yl)methoxy)-5,6,7,8-tetrahydropyrido[3,4-d]pyrimidin-4-yl)-N-isopropyl-5,6,7,8-tetrahydro-4H-pyrazolo[1,5-a][1,4]diazepine-2-carboxamide], the IC50 at KRas^G12D was no more than 2 nM; at KRas^G12R it was no more than 2 nM; on KRas^G12V it was no more than 2 nM; with ASPC1 cells, pERK it was 2 nM; in the experiment on H358 cells, pERK, 3 nM; in the experiment with H460 cells, pERK, 49 nM. Further, the IC50 in the experiment on H727 cells, pERK is 4 nM; in the experiment on MKN1 cells, pERK it was 7 nM; with PSN1 cells, pERK, 2880 nM.

On to `CCc1c(F)ccc2cc(O)cc(N3CCc4c(nc(OC[C@@]56CCCN5C[C@H](F)C6)nc4N4CCCn5nc(C(=O)N(C)C)c(C)c5C4)C3)c12` [Example 189, 5-(7-(8-ethyl-7-fluoro-3-hydroxynaphthalen-1-yl)-2-(((2R,7aS)-2-fluorotetrahydro-1H-pyrrolizin-7a(5H)-yl)methoxy)-5,6,7,8-tetrahydropyrido[3,4-d]pyrimidin-4-yl)-N,N,3-trimethyl-5,6,7,8-tetrahydro-4H-pyrazolo[1,5-a][1,4]diazepine-2-carboxamide], for which the IC50 at KRas^G12D was no more than 2 nM; on KRas^G12R, no more than 2 nM; at KRas^G12V, 52 nM; in the experiment with ASPC1 cells, pERK, 2 nM; with H358 cells, pERK it was 1 nM; in the experiment with H460 cells, pERK, 39 nM. The IC50 in the experiment with H727 cells, pERK worked out at 3 nM; in the experiment with MKN1 cells, pERK it was 4 nM; in the experiment with PSN1 cells, pERK it was 2680 nM.

As for `CCc1c(F)ccc2cc(O)cc(N3CCc4c(nc(OC[C@@]56CCCN5C[C@H](F)C6)nc4N4CCCn5nc(C(=O)N(C)C)c(F)c5C4)C3)c12` [Example 190, 5-(7-(8-ethyl-7-fluoro-3-hydroxynaphthalen-1-yl)-2-(((2R,7aS)-2-fluorotetrahydro-1H-pyrrolizin-7a(5H)-yl)methoxy)-5,6,7,8-tetrahydropyrido[3,4-d]pyrimidin-4-yl)-3-fluoro-N,N-dimethyl-5,6,7,8-tetrahydro-4H-pyrazolo[1,5-a][1,4]diazepine-2-carboxamide], the IC50 on KRas^G12D was no more than 2 nM; at KRas^G12R, no more than 2 nM; at KRas^G12V, no more than 2 nM; in the experiment with ASPC1 cells, pERK it was 2 nM; with H358 cells, pERK it was 3 nM; with H460 cells, pERK, 49 nM. For the same compound, the IC50 came to 6 nM in the experiment with H727 cells, pERK; 6 nM with MKN1 cells, pERK; 5450 nM in the experiment on PSN1 cells, pERK.

As for `CCc1c(F)ccc2cc(O)cc(N3CCc4c(nc(OC[C@@]56CCCN5C[C@H](F)C6)nc4N4CCCn5nc(C(=O)N6CCCC6)cc5C4)C3)c12` [Example 191, (5-(7-(8-ethyl-7-fluoro-3-hydroxynaphthalen-1-yl)-2-(((2R,7aS)-2-fluorotetrahydro-1H-pyrrolizin-7a(5H)-yl)methoxy)-5,6,7,8-tetrahydropyrido[3,4-d]pyrimidin-4-yl)-5,6,7,8-tetrahydro-4H-pyrazolo[1,5-a][1,4]diazepin-2-yl)(pyrrolidin-1-yl)methanone], the IC50 at KRas^G12D is no more than 2 nM; on KRas^G12R it was no more than 2 nM; at KRas^G12V, 52 nM; with ASPC1 cells, pERK, 3 nM; with H358 cells, pERK, 3 nM; in the experiment with H460 cells, pERK it was 33 nM. The IC50 worked out at 3 nM with H727 cells, pERK; 10 nM in the experiment with MKN1 cells, pERK; 2960 nM in the experiment on PSN1 cells, pERK.

With `CCc1c(F)ccc2cc(O)cc(N3CCc4c(nc(OC[C@@]56CCCN5C[C@H](F)C6)nc4N4CCCn5nc(C(=O)N6CCOCC6)cc5C4)C3)c12` [Example 193, (5-(7-(8-ethyl-7-fluoro-3-hydroxynaphthalen-1-yl)-2-(((2R,7aS)-2-fluorohexahydro-1H-pyrrolizin-7a-yl)methoxy)-5,6,7,8-tetrahydropyrido[3,4-d]pyrimidin-4-yl)-5,6,7,8-tetrahydro-4H-pyrazolo[1,5-a][1,4]diazepin-2-yl)(morpholino)methanone], the IC50 at KRas^G12D was no more than 2 nM; at KRas^G12R, no more than 2 nM; on KRas^G12V, no more than 2 nM; in the experiment on ASPC1 cells, pERK, 3 nM; in the experiment on H358 cells, pERK it was 2 nM; in the experiment on H460 cells, pERK, 38 nM. In addition, the IC50 turned out to be 5 nM with H727 cells, pERK; 74 nM in the experiment on HCT116 cells, pERK; 4 nM with MKN1 cells, pERK; 2100 nM in the experiment with PSN1 cells, pERK.

As for `CCc1c(F)ccc2cc(O)cc(N3CCc4c(nc(OC[C@@]56CCCN5C[C@H](F)C6)nc4N4CCCc5nn(C(=O)N(C)C)cc5C4)C3)c12` [Example 194, 5-(7-(8-ethyl-7-fluoro-3-hydroxynaphthalen-1-yl)-2-(((2R,7aS)-2-fluorohexahydro-1H-pyrrolizin-7a-yl)methoxy)-5,6,7,8-tetrahydropyrido[3,4-d]pyrimidin-4-yl)-N,N-dimethyl-5,6,7,8-tetrahydropyrazolo[4,3-c]azepine-2(4H)-carboxamide], the half-inhibitory concentration (IC50) at KRas^G12D is no more than 2 nM; at KRas^G12R, no more than 2 nM; on KRas^G12V it was no more than 2 nM; in the experiment with ASPC1 cells, pERK, 71 nM; in the experiment with H358 cells, pERK, 63 nM; with H460 cells, pERK, 426 nM. Also, the IC50 in the experiment on H727 cells, pERK was 115 nM; with MKN1 cells, pERK, 100 nM; in the experiment with PSN1 cells, pERK, no less than 10000 nM.

Turning to `O=S1(=O)NCC2(CCCN(c3nc(OC[C@@]45CCCN4C[C@H](F)C5)nc4c3CCN(c3cc(O)cc5ccc(F)c(Br)c35)C4)C2)N1` (stereo partly drawn) [Example 225, 7-(7-(8-bromo-7-fluoro-3-hydroxynaphthalen-1-yl)-2-(((2R,7aS)-2-fluorohexahydro-1H-pyrrolizin-7a-yl)methoxy)-5,6,7,8-tetrahydropyrido[3,4-d]pyrimidin-4-yl)-2-thia-1,3,7-triazaspiro[4.5]decane 2,2-dioxide], the IC50 was no more than 2 nM on KRas^G12D; no more than 2 nM on KRas^G12R; no more than 2 nM at KRas^G12V; 23 nM with ASPC1 cells, pERK; 9 nM in the experiment on H358 cells, pERK; 56 nM in the experiment with H460 cells, pERK. In addition, the IC50 amounted to 82 nM in the experiment on H727 cells, pERK; 158 nM in the experiment on HCT116 cells, pERK; 3 nM with MKN1 cells, pERK; 328 nM in the experiment on PSN1 cells, pERK.

Regarding `O=C1NC(=O)C2CN(c3nc(OC[C@@]45CCCN4C[C@H](F)C5)nc4c3CCN(c3cc(O)cc5ccc(F)c(Br)c35)C4)CC12` (stereo partly drawn) [Example 226, 5-(7-(8-bromo-7-fluoro-3-hydroxynaphthalen-1-yl)-2-(((2R,7aS)-2-fluorohexahydro-1H-pyrrolizin-7a-yl)methoxy)-5,6,7,8-tetrahydropyrido[3,4-d]pyrimidin-4-yl)tetrahydropyrrolo[3,4-c]pyrrole-1,3(2H,3aH)-dione], the IC50 was no more than 2 nM at KRas^G12D; no more than 2 nM on KRas^G12R; no more than 2 nM at KRas^G12V; 45 nM in the experiment on ASPC1 cells, pERK; 22 nM in the experiment on H358 cells, pERK; 169 nM with H460 cells, pERK. The half-inhibitory concentration (IC50) with H727 cells, pERK was 43 nM; with MKN1 cells, pERK, 7 nM; in the experiment with PSN1 cells, pERK it was 2790 nM.

By IC50 is commonly meant the midpoint of a concentration-inhibition curve.

(Values after patent publication US12421253B2 (Mirati Therapeutics, Inc., priority 2020, dated 2025).)
